Measured values published in patent EP0654028B1, “3- AND 5-SUBSTITUTED 1,2,3,4-OXATRIAZOLE-5-IMINE COMPOUNDS, A PROCESS FOR THE PREPARATION THEREOF, A PHARMACEUTICAL PREPARATION CONTAINING SAID COMPOUNDS AND THE USE OF SAID COMPOUNDS FOR THE PREPARATION OF MEDICAMENTS” (A/S GEA Farmaceutisk Fabrik, priority 1992, dated 1994).
Read-outs that look alike come from different tables or passages of the source.

Tested on: blood platelets (thrombocytes)
Assay: Inhibition of ADP-induced blood platelet aggregation in platelet-rich plasma (aggregometer measurement, Born)
Format: cell-based, healthy testees
Conditions: for IC50: read-out: IC₅₀
[1] = PRP from citrate stabilized venous blood, 37°C, test substance incubated three minutes, ADP 2 to 4 µM as pro-aggregating substance, linear regression

SMILES	IC50 [1] [nM]	inhibition of blood platelet aggregation (result in words)	IC50 [nM]
CCOC(=O)C(Cc1ccccc1)NC(=O)[N-]c1n[n+](-c2cccc(Cl)c2C)no1 (stereo not shown) [Example 9, 3-(3-chloro-2-methylphenyl)-1,2,3,4-oxatriazole-5(N-2-carbamoyl-3-phenylpropionic acid ethyl ester)imine]	7900		
CCOC(=O)NC(=O)[N-]c1n[n+](-c2cccc(Cl)c2C)no1 [Example 7, 3-(3-chloro-2-methylphenyl)-1,2,3,4-oxatriazole-5-(N-carbethoxy-carbamoyl)imine]	160		
CC(=O)Nc1ccc(S(=O)(=O)[N-]c2n[n+](-c3cccc(Cl)c3C)no2)cc1 [Example 3, 3-(3-chloro-2-methylphenyl)-1,2,3,4-oxatriazole-5-(N-4-acetylaminophenylsulphamoyl)imine]	1010		
CC(=O)Nc1nc(C)c(S(=O)(=O)[N-]c2n[n+](-c3cccc(Cl)c3C)no2)s1 [Example 2, 3-(3-chloro-2-methylphenyl)-1,2,3,4-oxatriazole-5-(N-2-acetamido-4-methyl-5-thiazolesulphamoyl)imine]	370		
COC(=O)C(C)NC(=O)[N-]c1n[n+](-c2cccc(Cl)c2C)no1 (stereo not shown) [Example 10, 3-(3-chloro-2-methylpheny1)-1,2,3,4-oxatriazole-5-(N-2-carbamoylpropionic acid methyl ester)imine]	2310		
Cc1c(Cl)cccc1-[n+]1noc([N-]S(=O)(=O)C[C@]23CCC(CC2=O)C3(C)C)n1 [Example 4, 3-(3-chloro-2-methylphenyl)-1,2,3,4-oxatriazole-5-(N-(1S)-(+)-10-camphorylsulphamoyl)imine]	80		
O=[N+]([O-])OCC(CO[N+](=O)[O-])O[N+](=O)[O-] [GTN, nitroglycerine, reference compound]		inactive	100000
[NH-]c1c[n+](N2CCOCC2)no1 [SIN-1, reference compound]	3900		
CCOC(=O)CNC(=O)[N-]c1n[n+](-c2cccc(Cl)c2C)no1 [Example 8, 3-(3-chloro-2-methylphenyl)-1,2,3,4-oxatriazole-5-(N-carbethoxymethylcarbamoyl)imine]	7600		
COc1ccc(S(=O)(=O)NC(=O)[N-]c2n[n+](-c3cccc(Cl)c3C)no2)cc1 [Example 6, 3-(3-chloro-2-methylphenyl)-1,2,3,4-oxatriazole-5-(N-4-methoxy-phenylsulphonylcarbamoyl)imine]			670
Cc1c(Cl)cccc1-[n+]1noc([N-]C(=O)NS(=O)(=O)c2ccccc2)n1 [Example 1, 3-(3-chloro-2-methylphenyl)-1,2,3,4-oxatriazole-5-(N-phenylsulphonylcarbamoyl) imine]	490		
CCOC(=O)c1ccc(NC(=O)[N-]c2n[n+](-c3cccc(Cl)c3C)no2)cc1 [Example 5, 3-(3-chloro-2-methylphenyl)-1,2,3,4-oxatriazole-5-(N-4-carbethoxyphenylcarbamoyl)imine]	2980		
